Source: US20120190648A1, “FLUORINATED CYCLOPROPANE ANALOGS OF GLUTAMIC ACID” (priority 2009, published 2012)
Like-named read-outs stand apart in the source and are kept apart here.

Target: mGlu4 receptor (Rattus norvegicus, UniProt P31423)
Assay: mGlu4 receptor test at different doses (1 nM to 1 mM) to determine EC50
Type: cell-based
Description: The compounds according to the invention have been tested on the mGlu4 receptor at different doses (between 1 nM and 1 mM) in order to determine their EC50 value. This test has been carried out according to the protocol described in: C. Selvam, C. Goudet, N. Oueslati, J.-P. Pin, F. Acher J. Med. Chem. 2007, 50, 4656-4664.

Sequence of mGlu4 receptor (P31423 33-912): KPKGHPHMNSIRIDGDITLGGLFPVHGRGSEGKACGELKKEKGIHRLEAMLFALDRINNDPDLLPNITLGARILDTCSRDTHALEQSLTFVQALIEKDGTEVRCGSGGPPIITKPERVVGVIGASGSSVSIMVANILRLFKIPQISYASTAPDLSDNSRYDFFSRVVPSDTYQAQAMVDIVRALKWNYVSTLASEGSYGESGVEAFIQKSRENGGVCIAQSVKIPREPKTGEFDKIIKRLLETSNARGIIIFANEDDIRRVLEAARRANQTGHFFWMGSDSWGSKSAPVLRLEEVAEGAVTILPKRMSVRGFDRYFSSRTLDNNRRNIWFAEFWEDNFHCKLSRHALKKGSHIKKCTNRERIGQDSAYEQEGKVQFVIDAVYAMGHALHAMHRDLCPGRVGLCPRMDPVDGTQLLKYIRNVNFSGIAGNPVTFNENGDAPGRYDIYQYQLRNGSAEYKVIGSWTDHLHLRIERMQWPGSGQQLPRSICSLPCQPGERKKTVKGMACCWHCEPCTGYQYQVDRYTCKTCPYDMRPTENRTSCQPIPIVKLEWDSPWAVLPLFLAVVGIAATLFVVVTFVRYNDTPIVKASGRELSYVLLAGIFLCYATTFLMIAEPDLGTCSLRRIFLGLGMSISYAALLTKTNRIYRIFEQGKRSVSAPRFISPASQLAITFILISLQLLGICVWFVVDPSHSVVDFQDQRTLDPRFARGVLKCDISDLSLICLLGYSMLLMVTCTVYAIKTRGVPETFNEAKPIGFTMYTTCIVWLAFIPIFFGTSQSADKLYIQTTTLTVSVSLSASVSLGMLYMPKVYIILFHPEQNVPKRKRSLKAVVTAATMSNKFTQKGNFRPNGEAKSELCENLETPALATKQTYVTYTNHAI

| Compound | EC50 (mGlu4 receptor, doses between 1 nM and 1 mM, protocol of Selvam et al. J. Med. Chem. 2007, 50, 4656-4664, read-out: EC50) [µM] | EC50 [µM] |
| --- | --- | --- |
| NC1(C(=O)O)CC1(F)CS(=O)(=O)O (racemic) [cis-I-6] | 85.6 | – |
| NC1(C(=O)O)CC1(F)CP(=O)(O)O (racemic) [cis-I-4] | – | 0.34 |
| N[C@]1(C(=O)O)C[C@@]1(F)C(O)P(=O)(O)O (mixture of isomers) [cis-I-3] | – | 27.4 |
